For data set [1] the following is noted: DTA.
The nature of data set [2]: Molar enthalpy of transition or fusion. To be noted: Crystal; DSC.

Numbers after ± are expanded uncertainties.

With `CC(C)(Sc1cc(C(C)(C)C)c(O)c(C(C)(C)C)c1)Sc1cc(C(C)(C)C)c(O)c(C(C)(C)C)c1` [probucol], the Normal melting temperature in data set [1] (Crystal) is 125.90 ± 0.5 °C. Moreover, the Glass transition temperature in data set [1] (Glass) came to 25.00 ± 4 °C. Moreover, the “Molar enthalpy of transition or fusion” value in data set [2] came to 32 ± 0.93 kJ/mol.
